Assay results reported in patent publication US7368115B2, “Method of enhancing neural stem cell proliferation, differentiation, and survival using pituitary adenylate cyclase activating polypeptide (PACAP)” (Stem Cell Therapeutics Inc., priority 2002, dated 2008).

Assays:
[1] = tested on: embryonic rat cortical precursors; conditions: Lu and DiCicco-Bloom, 1997; cited from earlier work
[2] = tested on: E14 ganglionic eminence neural stem cells; test: Primary neurosphere number from dissociated E14 ganglionic eminences (neural stem cell survival); assay type: cell-based, mouse
Text: FIG. 1. Pituitary adenylate cyclase-activating polypeptide (PACAP) enhanced neural stem cell survival in vitro. Embryonic day 14 ganglionic eminences (E14 GE) were dissociated and plated at 150 cells/ml in the indicated growth factor conditions. The number of neurospheres was counted after 10 days. Data are expressed relative to the number obtained with epidermal growth factor (EGF) alone (100%). PACAP increased the number of neurospheres obtained with either EGF or fibroblast growth factor (FGF)+heparan sulfate (HS). […] (* p<0.05, n=3).
Cell Culture: Primary embryonic neural stem cells were isolated from E14 ganglionic eminence as previously described (Reynolds and Weiss, 1992). Neurospheres were grown in the presence of EGF (20 ng/ml) or FGF-2 (20 ng/ml)+heparan sulfate (2 μg/ml) growth medium. Passaged neural stem cells were grown at a clonal density (150 cells/ml).
E14 GE were dissociated and plated at 150 cells/ml in EGF, EGF+PACAP, FGF+HS, or FGF+HS+PACAP. The number of neurospheres were counted after 10 days.

primary E14 neurospheres [3] = test: In vitro neurogenesis: count of β-tubulin immunopositive neurons from neurospheres; assay type: cell-based, mouse
Procedure: FIG. 3. PACAP enhanced in vitro neurogenesis by neural stem cells. Primary E14 neurospheres were grown in the indicated conditions for seven days and then processed for immunocytochemistry to count the number of B-tubulin immunopositive neurons. Data were normalized to either EGF or FGF+HS alone (100%). PACAP increased the number of neurons in all conditions. (* p<0.01, n=3).
Differentiation of Neurospheres: Neurospheres were plated onto poly-L-ornithine coated coverslips in serum-free medium and subjected to immunocytochemistry after 5 days in vitro. The number of β-III tubulin-positive cells were counted.
Primary E14 neurospheres were grown in either EGF or FGF media in the presence or absence of PACAP for seven days, differentiated for five days in vitro in basal media, and then processed for immunocytochemistry to determine the number of β-tubulin immunopositive neurons. Data were normalized to those obtained with either EGF or FGF+HS alone (100%).

Akt = Akt phosphorylation in cultured neural stem cells (Western blot); assay type: cell-based; conditions: within 1 to 2 hours, data not shown
Procedure: (§1) To examine the possible mechanisms of PACAP action on neural stem cells, the effects of PACAP on Akt and STAT5 phosphorylation were investigated. Immunoblots were performed with anti-STAT5 (1:1000, Santa Cruz Biotechnology), anti-phospho-STAT5 (1:1000; Cell Signaling Technology), anti-Akt and anti-phospho-Akt (1:1000; Cell Signaling Technology). […] PACAP also stimulated STAT5 phosphorylation, which was previously shown to be important in neural stem cell neurogenesis. The effects of PACAP on Akt and STAT5 phosphorylation may be critical in mediating actions on neural stem cell survival and neurogenesis.

[4] = Banks, 1993; cited from earlier work
[5] = tested on: adult forebrain subventricular zone (SVZ); test: In vivo proliferation in the adult subventricular zone (BrdU+ cells) after infusion into the lateral ventricle; parameters: species or system CD-1 mice; conditions: human PACAP 165 μg/ml by osmotic minipump into right lateral ventricle for 6 days; relative to vehicle infused animals
Text: FIG. 4. PACAP infusion stimulated increased proliferation in the adult subventricular zone (SVZ) in vivo. PACAP was infused into the lateral ventricles for six days with an osmotic minipump, followed by a series of BrdU injections. Brains were processed for immunocytochemistry. PACAP increased proliferation in the adult SVZ. (** p<0.05, n=4). […] To examine the actions of the peptide in vivo, CD-1 mice (6–7 weeks of age) were implanted with osmotic minipumps (Alzet 1007D) filled with either human PACAP (American Peptide Company, 165 μg/ml) or vehicle alone (0.9% saline containing 1 mg/ml mouse serum albumin). The cannulae were placed in the right lateral ventricle. Each animal was infused for 6 days and injected with BrdU every two hours for ten hours and killed 0.5 hours after the last injection. Brains were processed for immunohistochemistry as described previously (Shingo et al., 2001) and BrdU+cells were counted in serial sections of the SVZ.

STAT5 = STAT5 phosphorylation in cultured neural stem cells (Western blot); assay type: cell-based; conditions: data not shown
Procedure: as §1

primary E14 neurospheres [6] = test: Secondary neurosphere number from dissociated primary neurospheres (self-renewal); assay type: cell-based, mouse; conditions: primary neurospheres grown with PACAP, replated in EGF or FGF+HS; normalized to growth without PACAP
Procedure: FIG. 2. PACAP increased neural stem cell self-renewal in vitro. Primary E14 neurospheres were grown in the indicated conditions, dissociated, and replated in the presence of either EGF or FGF+HS. Neurospheres were counted and data were normalized to either EGF or FGF+HS alone. PACAP increased the number of secondary neurospheres obtained with either EGF or FGF+HS. (* p<0.05, n=3).
Single Cell Dissociation Assay: Single neurospheres ([…]) were dissociated mechanically and then plated in a 96 well plate and incubated for 10 days in vitro in the presence of growth factors.
Primary E14 neurospheres were grown in the indicated conditions in FIG. 2, then dissociated and replated in the presence of either EGF or FGF+HS and the number of secondary neurospheres was counted. Data were normalized to the numbers of secondary neurospheres generated from primary neurospheres grown in the absence of PACAP.

PACAP: polypeptide hormone that activates adenylate cyclase; native mammalian form is 38 or 27 amino acids; human PACAP from American Peptide Company used in vivo
mitosis [1]: can decrease mitosis
number of primary neurospheres generated in response to EGF ([2]; EGF+PACAP vs EGF, 150 cells/ml, counted after 10 days, lesser extent than with FGF-2): also increased
number of primary neurospheres generated in response to FGF-2 ([2]; FGF+HS+PACAP vs FGF+HS, 150 cells/ml, counted after 10 days, PACAP added at beginning of culture): significantly increased
neurosphere number with delayed addition of PACAP ([2]; PACAP addition delayed until 5 days in vitro): did not increase
number of β-tubulin immunopositive neurons generated (primary E14 neurospheres [3]; EGF or FGF media with PACAP for seven days, differentiated five days in vitro, normalized to EGF or FGF+HS alone (100%)): significantly increased
number of neurons generated with delayed PACAP addition (primary E14 neurospheres [3]; PACAP addition delayed until after five days in vitro (PACAP at 5 DIV)): an increase was observed
phosphorylation of Akt (Akt): rapid increase
crossing of the blood-brain-barrier [4]: known to cross the blood-brain-barrier
number of BrdU incorporating cells in the SVZ [5]: significantly increased
STAT5 phosphorylation (STAT5): stimulated
number of secondary neurospheres generated by single primary neurospheres (primary E14 neurospheres [6]): significantly increased
